Experimental findings from patent US12173089B2, “Inhibition of pulmonary fibrosis with nutlin-3A and peptides” (BOARD OF REGENTS, THE UNIVERSITY OF TEXAS SYSTEM, priority 2013, dated 2024) are described below.

Test [1] deals with FL-fibroblasts. The test can be described thus: Proliferation of cultured FL-fibroblasts (cell count). Format: cell-based, human. Conditions: cells counted after 3 d. Here is the method: (§1) FIGS. 8A-8C. Role of p53-fibrinolytic system cross-talk in nutlin-3a (NTL) or CSP-4-mediated inhibition of col-I expression in FL(IPF)-fibroblasts. (FIG. 8A) FL-fibroblasts were exposed to PBS, nutlin-3a (10 uM), CSP-4 (10 nM) or control peptide (CP) for 48 h. The cell lysates were immunoblotted for the expression of Col-I, PAI-1, p53, uPA and β-actin. (FIG. 8B) FL-fibroblasts cultured in 12 well plates in DMEM media were exposed to vehicle (PBS) or nutlin-3a, CSP-4 or CP. After 3 d, cells were detached and counted. (FIG. 8C) FL-fibroblasts were transduced with empty adenovirus vector alone (Ad-EV) or Ad-vector expressing p53 (Ad-p53), PAI-1 (Ad-PAI-1) or caveolin-1 (Ad-Cav-1). After 48 h, cell lysates were immunoblotted for Col-I, p53, PAI-1, uPA and β-actin.
(§2) FL-fibroblasts were exposed to PBS (control), nutlin-3a (10 μM), CSP-4 (10 nM) or CP for 48 hrs. Lysates were immunoblotted for the expression of Col-I, PAI-1, p53, and uPA. Cultured FL- were exposed to vehicle (PBS) or nutlin-3a, CSP-4 or CP and counted to assess proliferation. […] The process involves induction of p53 and PAI-1 expression, and concurrent inhibition of uPA.

In another test the test system is FL(IPF)-fibroblasts. The experiment in a line: Immunoblot of FL-fibroblast lysates for Col-I, PAI-1, p53 and uPA after exposure to nutlin-3a or CSP-4. The format is cell-based, human. Conditions: nutlin-3a 10 μM, CSP-4 10 nM, 48 hrs. Here is the method: as §1, §2
A general note: Immunoblotting shows a protein as a band on a membrane.

Test [2] relates to FL-fibroblasts. The experiment in a line: Treatment of FL-fibroblasts with nutlin-3a or CSP-4 (findings stated in the summary). Conditions: for miR-34a expression / production of ECM / uPAR expression: FL-fibroblasts. Format: cell-based.
In test [3] the test system is BLM-treated mice. The experiment in a line: Established lung fibrosis in BLM-treated mice (CT scanning, lung function, trichrome staining, hydroxyproline, desmosine). Conditions: for established lung fibrosis: WT mice, results reported herein and elsewhere. Format: in vivo. How it is done:
FIGS. 10A-10D. Nutlin-3a (NTL) inhibits lung fibrosis in BLM-treated mice. Mice were exposed to BLM for 14 d to induce lung fibrosis. Saline treated mice were used as fibrosis controls. After 14 d, mice exposed to BLM were injected IV with either vehicle or nutlin-3 a (10 mg/kg body weight) (Zhang F et al. Drug Metab Dispos 39: 15-21, 2011) to determine whether nutlin-3 a inhibited established lung fibrosis. On day 21 after BLM injury, mice underwent CT scanning to assess the extent of fibrosis (FIG. 10A). One representative example is shown (n=9). (FIG. 10B) Lung compliance and resistance were measured in the same mice using the Flexivent system to assess improvement in lung function after nutlin-3 a treatment (n=9). (FIG. 10C) Lung sections were subjected to trichrome staining to assess lung architecture and collagen deposition as an indication of lung fibrosis. (FIG. 10D) Whole lung homogenates were analyzed for total collagen (hydroxyproline) and desmosine content as an independent assessment of changes in ECM.
FIGS. 11A-11D. CSP-4 inhibits established lung fibrosis and improves lung function. Mice were exposed to BLM to induce pulmonary fibrosis. After 14 d, the mice were injected IV with either vehicle or 1.5 mg/kg body weight of CSP-4 or control peptide (“CP”) of scrambled sequence. On d 21 after BLM injury, mice underwent CT scanning examine CSP-4 inhibition of established lung fibrosis (FIG. 11A). One representative example is shown (n=9). (FIG. 11B): Lung volumes were measured in the same mice (n=9) using quantitative CT renditions. (FIG. 11C): Lung sections were subjected to trichrome and H&E staining (not shown) to assess collagen deposition as an indicator of lung fibrosis. (FIG. 11D) Analysis of whole lung homogenates for total hydroxyproline content.
Mice exposed to BLM (or saline in controls) for 14 d to induce lung fibrosis were injected IV with nutlin-3a (10 mg/kg body weight) (Zhang et al, supra) or a vehicle control to determine and the effect on established lung fibrosis was examined. Fibrosis was evaluated by CT scanning and lung function (compliance and resistance) were measured using the Flexivent system. Lung sections were subjected to trichrome staining and H & E staining (the latter not shown) to assess lung architecture and collagen deposition as an indication of fibrosis. Finally, whole lung homogenates were analyzed for total collagen (hydroxyproline) and desmosine content (Bhandary Y P et al, Am J Physiol: Lung Cell Mol Physiol 302:L463-73, 2012; Bhandary Y P et al, Am J Pathol, 183: 131-43 2013) as an independent assessment of the ECM. […] Oral administration of Nutlin-3a 14 days after BLM injury likewise inhibited pulmonary fibrosis in mice.
Mice were exposed to BLM to induce pulmonary fibrosis. After 14 d, the mice were injected IV with either vehicle or 1.5 mg/kg body weight of CSP-4 (SEQ ID NO: 1) or control peptide (scrambled sequence of same amino acids; CP, SEQ ID NO:5) at 1.5 mg/kg body weight or vehicle was injected IV into mice exposed to BLM 14 days earlier. One week later, mice were tested by CT scanning to evaluate lung fibrosis. Lung volume was measured in the same mice using quantitative CT renditions.

Test [4] concerns BLM-treated mice. The test can be described thus: Ki-67 immunohistochemistry of lung sections of BLM-treated mice. The format is in vivo. Conditions: IV treatment 14 d after BLM, sections seven days later. Here is the method:
FIGS. 12A-12C. CSP-4 or nutlin-3a (NTL) inhibits proliferation of FL-fibroblasts. Mice were exposed to BLM for 14 d to induce significant lung fibrosis or to saline (fibrosis controls). 14 d later, mice exposed to BLM were treated with CSP-4 or CP, or nutlin-3a (see FIGS. 10A-10D/11A-11D). (FIG. 12A): Lung sections (d 21 after BLM injury) were subjected to immunohistochemistry (IHC) for Ki-67 to assess proliferation. One representative example is shown (n=9). Fibroblasts were isolated from the lungs of mice exposed to saline, BLM or BLM+nutlin-3a (as described in FIG. 11A) were tested for the changes in expression of col-I, p53 and downstream uPA and PAI-1 proteins by Western blotting (FIG. 12B):, and mRNA by quantitative RT-PCR (FIG. 12C).
Mice exposed to BLM 14 days earlier were treated with CSP-4 or its control (CP) or Nutlin-3a IV (as in Examples IX and X). Seven days later lung sections were obtained and subjected to IHC for Ki-67 to assess cell proliferation (see FIG. 12A). […] Fibroblasts isolated from the lungs of these animals (as described in Example X) were tested for the changes in expression of col-I, p53 and downstream uPA and PAI-1 proteins by Western blotting, and mRNA by quantitative RT-PCR (see FIGS. 12B-12C).

As for `COc1ccc(C2=NC(c3ccc(Cl)cc3)C(c3ccc(Cl)cc3)N2C(=O)N2CCNC(=O)C2)c(OC(C)C)c1` (stereo not drawn) [nutlin-3a, 4-2-4,5-dihydro-1H-imidazole-1-piperazin-2-one], in the test with FL-fibroblasts [1], the “proliferation of FL-fibroblasts” value is “inhibited”. In addition, in the test with FL(IPF)-fibroblasts, the PAI-1 expression entry is listed as “induction”, the col-I expression entry is “inhibited”, the p53 expression result is listed as “induction” and the uPA expression result is on record as “inhibition”. Moreover, in the test on FL-fibroblasts [2], the miR-34a expression entry is “restore”, the “production of ECM” value is “inhibits” and the uPAR expression result is “inhibition”. In the test on FL-fibroblasts [2] (fibroblasts from lungs of patients with IPF and of mice with BLM-induced pulmonary fibrosis), the “apoptosis of fibrotic fibroblasts” value was “results in apoptosis”. The “effect on established lung fibrosis (CT, compliance and resistance, trichrome, hydroxyproline, desmosine)” value with BLM-treated mice [3] (IV 10 mg/kg body weight 14 d after BLM, read on day 21) was “beneficial effect”. For the same molecule, in the test with BLM-treated mice [3] (IV or oral administration beginning 14 d after BLM), the established lung fibrosis result is recorded as “mitigates”. Moreover, the pulmonary fibrosis result with BLM-treated mice [3] (oral administration 14 days after BLM injury) is recorded as “inhibited”. For the same molecule, in the test with BLM-treated mice [4], the “staining for ki-67 antigens in lung sections” value is recorded as “significantly reduced”.
For FTTFTVT [CSP-4], the “proliferation of FL-fibroblasts” value with FL-fibroblasts [1] is recorded as “inhibited”. For the same molecule, in the test on FL(IPF)-fibroblasts, the PAI-1 expression entry is recorded as “induction”, the col-I expression result is “inhibited”, the p53 expression result was “induction” and the uPA expression result is “inhibition”. In addition, in the test with FL-fibroblasts [2], the miR-34a expression entry was “restore”, the “production of ECM” value is listed as “inhibits” and the uPAR expression result is recorded as “inhibition”. Also, the established lung fibrosis result in the test with BLM-treated mice [3] (IP or IV administration beginning 14 d after BLM) is “mitigates”. The “BLM-induced lung fibrosis (CT, lung volume, trichrome and H&E, hydroxyproline)” value in the test on BLM-treated mice [3] (IV 1.5 mg/kg body weight 14 d after BLM, read one week later) was “inhibited”. In the test on BLM-treated mice [4], the “staining for ki-67 antigens in lung sections” value is recorded as “significantly reduced”.
